Patent US20260191764A1, “COMBINATION OF A LACTOBACILLUS STRAIN AND A GRAPE EXTRACT FOR USE AS AN ANTI-AGEING AGENT” (CEPAGES, priority 2022, published 2026)

Assays:
NHEK keratinocytes = assay: ROS production in NHEK keratinocytes subjected to UVA (H2DCFDA probe); format: cell-based, Human; conditions: UVA 5 J/cm^2, extract at 0.29%, active at 0.3%, ascorbic acid at 300 μg/mL, 24 h pre-treatment, FIG. 2
Description: The Normal Human foreskin-derived Epidermal Keratinocytes isolated from 3 Caucasian donors (NHEKs, Lonza, 00192906) were grown in Epilife medium (Fisher Scientific, M-EPI-500-A) supplemented with Human Keratinocyte Growth Supplement (HKGS, Fisher Scientific, S-001-5). The cells were maintained in a humidified incubator at 37° C. with a 5% CO2 atmosphere. The detection and quantification of the intracellular ROS amounts from 2D NHEK keratinocytes or 3D RHE were performed using the H2DCFDA (2′-7′dichlorodihydrofluorescein diacetate; Fisher Scientific; D399) probe. After its diffusion into the live cells, the probe is deacetylated by intracellular esterases to a non-fluorescent compound. This compound can be oxidized by ROS and converted into the highly fluorescent DCF (2′-7′ dichlorofluorescein). The production of ROS by cells can be therefore measured through the level of fluorescence emitted by the oxidized dye. NHEK keratinocytes in 24-well plates were pre-treated in the culture medium during 24 h by the compounds at 1 concentration or with the antioxidant reference, ascorbic acid at 300 μg/mL. […] Following the challenge, the fluorescence was measured (excitation: 475 nm; emission: 500-550 nm) with a fluorescence microplate reader (Glomax Explorer, Promega). […]

pro-MMP1 = assay: Pro-MMP1 release from NHDFs fibroblasts (ELISA); format: cell-based, Human; conditions: NHDFs treated 72 h; B 0.0079%, E 0.029%, A 0.03%; TGF-β1 20 ng/ml; TNFα 20 ng/mL + IL1β 2.5 ng/ml; vs untreated control; FIG. 3
Description: The Normal Human foreskin-derived Dermal Fibroblasts (NHDFs; ATCC, CRL-2522) cells were grown in Dulbecco's Modified Eagle Medium (DMEM, Gibco/Life Technologies, 31885) supplemented with 10% of Foetal Bovine Serum (FBS, Gibco/Life Technologies, 10270). The cells were maintained in a humidified incubator at 37° C. with a 5% CO2 atmosphere.
NHDF fibroblasts were cultivated on 24-well plates in complete culture medium (containing 10% FBS) 24 h before the treatment with the compounds. Cells were then treated for 72 h with the test compounds in culture medium, in absence of FBS. In parallel, reference treatments were applied according to the same method (TGF-β at 20 ng/ml; combination of TNFα at 20 ng/ml and IL1β at 2.5 ng/ml). All the treatments were performed in triplicate of culture (n=3).
At the end of the 72 h of treatments, all the supernatants were collected, aliquoted and stored at −20° C. until further use in specific ELISA assays. Through these assays, the quantifications of the extracellular releases of pro-MMP1 (R&D systems, DMP100) produced by NHDFs fibroblasts were assessed according to the supplier's specifications.

Molecule	ROS production (NHEK keratinocytes)	pro-MMP1 release in supernatant (pro-MMP1)
O=C1O[C@H]([C@@H](O)CO)C(O)=C1O [ascorbic acid]	partially suppressed this effect	
TGF-β1: negative reference at 20 ng/ml in the pro-MMP1 assay		reduced
